Assay type in all cases: in vivo
Test [1] in a line: Taste panel: umami and salt intensity of solution B vs reference solution A (Example 2). Particulars: 10 ppm compound in 0.5% NaCl and 0.03% MSG vs same solution without compound; scale -3 (much lower than base) to 3 (much higher than base); average of 4 flavourists. How it is done:
Two solutions were prepared: • A a solution of 0.5% NaCl and 0.03% MSG • B a solution of 0.5% NaCl and 0.03% MSG and 10 ppm Example 1 compound
The samples were tasted by a small group of flavourists (2 male, 2 female, aged between 30 and 60). The intensity of the umami and salt taste of solution B was compared with that of the reference (solution A) and rated according to the following intensity scale: • Taste effect much lower than base: −3 • Taste effect lower than base: −2 • Taste effect slightly lower than base: −1 • Taste effect same as base: 0 • Taste effect slightly higher than base: 1 • Taste effect higher than base: 2 • Taste effect much higher than base: 3
The results (average of ratings given by the flavourists) were: […]

Test [2] in a line: Taste panel: enhancement effect on NaCl, MSG and ribonucleotides taste (Example 3). As to conditions: 5-10 flavourists. How it is done: Six solutions were prepared: • A a solution of 0.5% NaCl • B a solution of 0.5% NaCl and 0.03% MSG • C a solution of 0.5% NaCl and 0.015% ribonucleotides • D a solution of 0.5% NaCl and 50 ppm Example 1 compound • E a solution of 0.5% NaCl and 0.03% MSG and 50 ppm Example 1 compound • F a solution of 0.5% NaCl and 0.015% ribonucleotides and 50 ppm Example 1 compound
The samples were tasted by a group of 5-10 flavourists aged between 30 and 60. The taste of solution D is compared with that of A to determine the enhancement effect of Example 1 compound on NaCl. Similarly, solution E is compared with solution B and solution F with solution C to determine the enhancement effect of Example 1 compound on MSG and ribonucleotides respectively. The effect is marked between 0 and 10, the greater the value the greater the effect.

Test [3] in a line: Taste panel: bouillon with compound vs reference bouillon (Example 4). As to conditions: 200 ppm in bouillon (32 g mix in 1 L boiling water); 4 flavourists. As to the method: A bouillon mix was prepared from 155.0 g of sodium chloride, 157.0 g of dextrose monohydrate (ex Tapioca), 0.2 g of celery oleoresin, 0.3 g of oleoresin turmeric Vegex, 0.2 g of oleoresin coriander seed, 444.8 g maltodextrin 5-8 DE, 40.0 g vegetable oil soya bean refined, 30.0 g yeast standard light, 4.0 g of onion powder, 4.0 g of garlic powder, 0.5 g of white pepper and 164.0 g of potato starch.
32 g of the well-mixed ingredients was added to 1 L of boiling water and stirred until completely dissolved.
A small group of flavourists (2 male, 2 female) compared the taste of the reference bouillon with that of a batch of the same bouillon containing 200 ppm of N-methyl-D-aspartic acid.

`CNC(CCC(=O)O)C(=O)O` (racemic) [N-methyl-DL-glutamic acid, N-methyl-DL-glutamic Acid]: in test [1], the “Intensity Taste Salt (NaCl)” value worked out at 1.00 and the “Intensity Taste Umami” value was determined as 0.00.

As to `CN[C@H](CC(=O)O)C(=O)O` [N-methyl-D-aspartic acid, N-methyl-D-aspartic Acid], in test [1], the “Intensity Taste Salt (NaCl)” value is recorded as 0.50 and the “Intensity Taste Umami” value is given as 0.50. Further, the “NaCl Taste” value in test [2] (50 ppm compound in 0.5% NaCl (solution D) vs solution A (reference 0.0), marked 0 to 10, the greater the value the greater the effect) came out at 0.7. Besides, in test [2] (50 ppm compound in 0.5% NaCl and 0.015% ribonucleotides (solution F) vs solution C (reference 5.0), marked 0 to 10), the Ribo taste is listed as 6.3. The MSG taste in test [2] (50 ppm compound in 0.5% NaCl and 0.03% MSG (solution E) vs solution B (reference 5.0), marked 0 to 10) was determined as 5.3. Moreover, in test [3], the “Salivating effect of test bouillon vs reference bouillon” value was “slightly more salivating” and the “Umami taste of test bouillon vs reference bouillon” value is given as “slightly more umami”.

The values above are taken from US20140272067A1, “ORGANIC COMPOUNDS” (Givaudan S.A., priority 2011, published 2014).
